Data on 73 compounds can be found in the supplement of paper PMC7806825.

This series has as its system McpC ligand-binding domain (Salmonella Typhimurium SL1344). In words: protein melting temperature (Tm) in presence of compound (degrees C); higher = more thermal stabilisation (possible ligand binding). As to conditions: compound stock concentration: 10-20 mM, 2 uL in 10 uL reaction.

The structures appear in SMILES notation. ± gives the standard deviation of the averaged measurements.

With `N[C@@H]1[C@@H](O)[C@H](O)[C@@H](COP(=O)(O)O)O[C@@H]1O` [D-Glucosamine-6-Phosphate], the protein melting temperature (Biolog plate: PM04A) stood at 44.1. Take `O=C(O)[C@@H]1CCCN1` [L-Proline]: the protein melting temperature was determined as 44.3 (Biolog plate: PM01), 45.1 (Biolog plate: PM03B) and 44.2 (Biolog plate: PM05). For the compound `O=C(O)c1ccc(O)cc1` [4-Hydroxybenzoic acid], the protein melting temperature (Biolog plate: PM02A) was 43.3.

For the compound `CCCCCCCCCC(=O)O` [Capric acid], the protein melting temperature (Biolog plate: PM02A) turned out to be 42.4. Consider `OC[C@H]1O[C@H](O)[C@H](O)[C@@H](O)[C@@H]1O` [a-D-Glucose], for which the protein melting temperature by setting is: (Biolog plate: PM01) 44.9; (Biolog plate: PM05) 42.9.

Take `Nc1ccc(S(=O)(=O)O)cc1` [p-Aminobenzene Sulfonic acid]: the protein melting temperature (Biolog plate: PM04A) turned out to be 44.5. Take `CCSCCC(N)C(=O)O` (racemic) [DL-Ethionine]: the protein melting temperature (Biolog plate: PM04A) was found to be 43.9. On the same count and under the same terms, as for `CS(=O)(=O)O` [Methane Sulfonic acid], the figure is 44.4. Take `OC[C@H]1O[C@@H](O[C@@H]2[C@@H](CO)OC(O)(CO)[C@H]2O)[C@H](O)[C@@H](O)[C@H]1O` (mixture of isomers) [Lactulose]: the protein melting temperature (Biolog plate: PM01) is 44.9. With `Nc1ncnc2c1ncn2[C@@H]1O[C@H](COP(=O)(O)O)[C@@H](O)[C@H]1O` [Adenosine 5`-Monophosphate], the protein melting temperature (Biolog plate: PM04A) was determined as 43.9.

As for `NCC(=O)N[C@@H](CC(N)=O)C(=O)O` [Gly-Asn], where the note is “Biolog plate: PM03B”, the protein melting temperature turned out to be 44.5. For the compound `O=C(O)[C@H]1OC(O)[C@H](O)[C@@H](O)[C@H]1O` (stereo partly drawn) [D-Galacturonic acid], where the note is “Biolog plate: PM01”, the protein melting temperature was 44.4.

Turning to `O=C(O)Cc1ccc(O)cc1` [p-Hydroxyphenyl Acetic acid], the protein melting temperature (Biolog plate: PM01) stood at 45.3. As for `NCCCCCC(=O)O` [e-Amino-N-Caproic acid], the protein melting temperature (Biolog plate: PM03B) is 44.4. As for `O=C(O)Cc1cccc(O)c1` [m-Hydroxyphenyl Acetic acid], under “Biolog plate: PM01”, the protein melting temperature was found to be 44.9. In the case of `Nc1ncnc2c1ncn2[C@@H]1O[C@H](CO)[C@@H](O)[C@H]1OP(=O)(O)O` [Adenosine 2`-Monophosphate], the protein melting temperature (Biolog plate: PM04A) was found to be 43.8. Consider `CC(=O)C(=O)O` [Pyruvic acid], for which the protein melting temperature (Biolog plate: PM01) worked out at 44.9. As for `O=S(O)(O)=S` [Thiosulfate], the protein melting temperature (Biolog plate: PM04A) is 42.8. In the case of `N[C@H](CC(=O)O)C(=O)O` [D-Aspartic acid], the protein melting temperature reads like this: (Biolog plate: PM01) 44.2; (Biolog plate: PM03B) 44.9; (Biolog plate: PM05) 44.4. Regarding `OP(O)(O)=S` [Thiophosphate], the protein melting temperature (Biolog plate: PM04A) stood at 43.88 ± 0.26. For the compound `O=c1[nH]c(=O)c2nc[nH]c2[nH]1` [Xanthine], the protein melting temperature (Biolog plate: PM03B) was 44.5. Take `CSCC[C@H](N)C(=O)O` [L-Methionine]: the protein melting temperature reads like this: (Biolog plate: PM02A) 43.5; (Biolog plate: PM03B) 44.7; (Biolog plate: PM04A) 43.9; (Biolog plate: PM05) 44.4.

`CCCCS(=O)(=O)O` [Butane Sulfonic acid]: the protein melting temperature (Biolog plate: PM04A) is 44.4. Regarding `Nc1ccn([C@H]2C[C@H](O)[C@@H](CO)O2)c(=O)n1` [2`-Deoxycytidine], the protein melting temperature (Biolog plate: PM05) is 44.3. On to `N[C@H](Cc1ccc(OP(=O)(O)O)cc1)C(=O)O` [O-Phospho-D-Tyrosine], for which the protein melting temperature (Biolog plate: PM04A) is 43.7. In the case of `N[C@@H]1C(O)O[C@H](CO)[C@@H](O)[C@@H]1O` (stereo partly drawn) [D-Mannosamine], for the setting “Biolog plate: PM03B”, the protein melting temperature came to 44.6. With `NCC(=O)N[C@@H](CC(=O)O)C(=O)O` [Gly-Asp], the protein melting temperature (Biolog plate: PM01) turned out to be 44.4. For `N[C@H](COP(=O)(O)O)C(=O)O` [O-Phospho-D-Serine], where the note is “Biolog plate: PM04A”, the protein melting temperature came out at 43.9. As for `O=C(O)CC(O)C(=O)O` (racemic) [DL-Malic acid], the protein melting temperature (Biolog plate: PM01) worked out at 44.5.

For the compound `C[C@@H](OP(=O)(O)O)[C@H](N)C(=O)O` [O-Phospho-L-Threonine], the protein melting temperature (Biolog plate: PM04A) is 44.

On to `OC[C@H]1O[C@@H](O[C@H]2[C@H](O)[C@@H](O)[C@H](O[C@H]3[C@H](O)[C@H](O)[C@H](O[C@@H]4[C@H](O)[C@H](O)[C@H](O)O[C@@H]4CO)O[C@@H]3CO)O[C@@H]2CO)[C@@H](O)[C@@H](O)[C@@H]1O` [Mannan], for which, under “Biolog plate: PM02A”, the protein melting temperature stood at 44.8.

As to `CCCC(=O)C(=O)O` [a-Keto-Valeric acid], the protein melting temperature (Biolog plate: PM02A) was determined as 44.3.

As for `C[C@H](N)C(=O)NCC(=O)O` [Ala-Gly], the protein melting temperature stood at 44.9 (Biolog plate: PM01) and 45.2 (Biolog plate: PM03B).

Consider `Nc1ncnc2c1ncn2[C@H]1C[C@H](O)[C@@H](CO)O1` [2`-Deoxyadenosine], for which the protein melting temperature came to 43.9 (Biolog plate: PM01) and 44 (Biolog plate: PM05). Consider `CO[C@H]1O[C@H](CO)[C@@H](O)[C@H](O)[C@@H]1O` [a-Methyl-D-Mannoside], for which, under “Biolog plate: PM02A”, the protein melting temperature was found to be 44.9.

With `O=C(O)c1cc(=O)[nH]c(=O)[nH]1` [Orotic acid], the protein melting temperature (Biolog plate: PM05) was determined as 43. In the case of `OC[C@H]1OC(O)[C@@H](O)[C@@H](O)[C@@H]1O` (stereo partly drawn) [D-Mannose], under “Biolog plate: PM01”, the protein melting temperature amounted to 44.2.

In the case of `CC[C@H](O)C(=O)O` [a-Hydroxybutyric acid], the protein melting temperature came out at 44.6 (Biolog plate: PM01) and 43.7 (Biolog plate: PM05). Turning to `NCCCNCCCCNCCCN` [Spermine], the protein melting temperature (Biolog plate: PM05) turned out to be 43.8. `CCOP(=O)(OCC)OCC` [Triethyl Phosphate]: the protein melting temperature (Biolog plate: PM04A) came to 44.9.

Regarding `NC(=O)c1ccc[n+](C2OC(COP(=O)([O-])OP(=O)(O)OCC3OC(n4cnc5c(N)ncnc54)C(O)C3O)C(O)C2O)c1` (stereo unspecified) [b-Nicotinamide Adenine Dinucleotide], the protein melting temperature (Biolog plate: PM05) stood at 44.8. With `OC[C@H]1O[C@H](OC[C@H]2OC(O)[C@H](O)[C@@H](O)[C@@H]2O)[C@H](O)[C@@H](O)[C@H]1O` (stereo partly drawn) [D-Melibiose], the protein melting temperature (Biolog plate: PM01) was 44.7. Take `O=C(O)c1cccnc1C(=O)O` [Quinolinic acid]: the protein melting temperature (Biolog plate: PM05) stood at 43.8. As to `CO[C@H]1O[C@H](CO)[C@@H](O)[C@H](O)[C@H]1O` [a-Methyl-D-Glucoside], for the setting “Biolog plate: PM02A”, the protein melting temperature worked out at 44.2. On to `OC[C@@H](O)[C@@H](O[C@@H]1O[C@H](CO)[C@H](O)[C@H](O)[C@H]1O)[C@H](O)[C@@H](O)CO` [D-Lactitol], for which the protein melting temperature (Biolog plate: PM02A) is 44.7.

With `NCCCCN=C(N)N` [Agmatine], the protein melting temperature (Biolog plate: PM03B) came to 44.1. In the case of `CSCC[C@@H](N)C(=O)O` [D-Methionine], the protein melting temperature (Biolog plate: PM04A) is 43.7. On to `OC[C@H]1OC(O[C@H]2[C@H](O)[C@@H](O)C(O[C@H]3[C@H](O)[C@@H](O)[C@@H](O)O[C@@H]3CO)O[C@@H]2CO)[C@H](O)[C@@H](O)[C@@H]1O` (stereo partly specified) [Dextrin], for which the protein melting temperature (Biolog plate: PM02A) is 44. With `O=[N+]([O-])O` [Nitrate], for the setting “Biolog plate: PM03B”, the protein melting temperature was found to be 46. Take `C[C@@H](N)C(=O)O` [D-Alanine]: the protein melting temperature (Biolog plate: PM01) was 43.9, the protein melting temperature (Biolog plate: PM03B) came to 44.9 and the protein melting temperature (Biolog plate: PM05) was 44. In the case of `NC(N)=S` [Thiourea], for the setting “Biolog plate: PM04A”, the protein melting temperature worked out at 44.6. Consider `NC(=O)NCCC[C@H](N)C(=O)O` [L-Citrulline], for which the protein melting temperature reads like this: (Biolog plate: PM03B) 44.8; (Biolog plate: PM05) 43.8.

For the compound `O=C(O)[C@H]1O[C@@H](O)[C@H](O)[C@@H](O)[C@H]1O` [Pectin], the protein melting temperature (Biolog plate: PM02A) amounted to 45. In the case of `NCC(=O)N[C@@H](CCC(=O)O)C(=O)O` [Gly-Glu], the protein melting temperature (Biolog plate: PM01) was 44.9 and the protein melting temperature (Biolog plate: PM03B) was determined as 45.1. In the case of `O=C(CO)[C@@H](O)[C@H](O)[C@H](O)CO[C@H]1O[C@H](CO)[C@@H](O)[C@H](O)[C@H]1O` [Palatinose], the protein melting temperature (Biolog plate: PM02A) is 44. The same measure, in the same setting: in the case of `NC(=O)CCC(=O)O` [Succinamic acid] it was 43.6. For `COC(=O)C(C)=O` [Methylpyruvate], the protein melting temperature (Biolog plate: PM01) was found to be 44.9.

Turning to `CC1=CC(=O)c2ccccc2C1=O` [Menadione], the protein melting temperature (Biolog plate: PM05) is 42.6.

For the compound `N[C@H](CCC(=O)O)C(=O)O` [D-Glutamic acid], the protein melting temperature (Biolog plate: PM03B) was 45 and the protein melting temperature (Biolog plate: PM05) came to 44.8. As to `C[C@H](N)C(=O)N[C@H](C(=O)O)[C@@H](C)O` [Ala-Thr], the protein melting temperature (Biolog plate: PM03B) is 45.1.

Consider `NCCc1c[nH]cn1` [Histamine], for which the protein melting temperature (Biolog plate: PM03B) worked out at 45.1. Turning to `O=P(O)(O)CP(=O)(O)O` [Methylene Diphosphonic acid], the protein melting temperature (Biolog plate: PM04A) was determined as 44. As to `O=C(O)[C@H](O)[C@@H](O)[C@H](O)[C@H](O)CO[C@H]1O[C@H](CO)[C@H](O)[C@H](O)[C@H]1O` [Melibionic acid], for the setting “Biolog plate: PM02A”, the protein melting temperature is 44.7. Turning to `O=C(O)c1ccccc1O` [2-Hydroxybenzoic acid], the protein melting temperature (Biolog plate: PM02A) is 45.4. Regarding `CC(C)[C@@H](N)C(=O)O` [D-Valine], the protein melting temperature (Biolog plate: PM03B) was determined as 44.7.

Take `NCCCCNCCCN` [Spermidine]: the protein melting temperature (Biolog plate: PM05) was found to be 41.1. With `O=C(O)CC(=O)C(=O)O` [Oxaloacetic acid], the protein melting temperature (Biolog plate: PM05) was found to be 43.8. For `NCCc1ccc(O)cc1` [Tyramine], the protein melting temperature stood at 43.9 (Biolog plate: PM01) and 44.8 (Biolog plate: PM03B). As to `OC[C@H]1O[C@H](O[C@H]2[C@H](O)[C@@H](O)[C@@H](O[C@H]3[C@H](O)[C@@H](O)[C@@H](O)O[C@@H]3CO)O[C@@H]2CO)[C@H](O)[C@@H](O)[C@@H]1O` [Maltotriose], the protein melting temperature (Biolog plate: PM01) is 44. Take `Cc1c[nH]c(=O)[nH]c1=O` [Thymine]: the protein melting temperature reads like this: (Biolog plate: PM03B) 45.1; (Biolog plate: PM05) 43. For the compound `O=C(O)CP(=O)(O)O` [Phosphono Acetic acid], under “Biolog plate: PM04A”, the protein melting temperature was 44. As for `OC[C@@H](O)[C@H](O)[C@@H](O)CO` [Xylitol], where the note is “Biolog plate: PM02A”, the protein melting temperature is 44.3. As to `O=C(O)CC(CC(=O)O)C(=O)O` [Tricarballylic acid], under “Biolog plate: PM01”, the protein melting temperature turned out to be 44.3.
